The values below come from patent US20230012368A1 (Hoffmann-La Roche Inc., priority 2018, published 2023).

Structures can show the parent of a compound that is named as a salt. Where two headings read alike, the source gives them in different places.

For the experiment, the system named is Acinetobacter baumannii ATCC 17978. The experiment in a line: Antimicrobial susceptibility testing: 90% growth inhibitory concentration (IC90) determination. The experiment is classed as cell-based. Conditions: 90% growth inhibitory concentration, Acinetobacter baumannii ATCC17978, Iso-Sensitest broth, OD 600 nm over 16h, read-out: ATCC17978 IC90. A digest of the protocol: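 Growth of the Acinetobacter baumannii strain was followed by optical density at 600 nm every 20 minutes for 16h at 35±2° C. Inoculum was ~5×10^(5) CFU/ml in Iso-Sensitest medium, with twofold compound dilutions (e.g. 50 to 0.097 μM final). The 90% inhibitory concentration was derived in log-phase growth.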

[1] abbreviates: Acinetobacter baumannii, ATCC17978, 16 h.

Broadly, the IC90 is the concentration needed for an effect of 90%.

For `CCc1cc(Nc2nccn3c(-c4ccc(Oc5ncccn5)c(F)c4F)cnc23)ccc1C(=O)NCCCNC(=O)C1CCNCC1` [Example 544, N-(3-(4-((3-(2,3-difluoro-4-(pyrimidin-2-yloxy)phenyl)imidazo[1,2-a]pyrazin-8-yl)amino)-2-ethylbenzamido)propyl)piper-idine-4-carboxamide formate], the IC90 under setting [1] came to 290 nM.
Take `COc1ccc(-c2cnc3c(Nc4ccc(C(=O)NCC5OCC(N)CO5)c(C)c4)nccn23)cc1` (stereo not drawn) [Example 206, N-[(5-amino-1,3-dioxan-2-yl)methyl]-4-[[3-(4-methoxyphenyl)imidazo[1,2-a]pyrazin-8-yl]amino]-2-methylbenzamide]: the IC90 under setting [1] worked out at 540 nM.
Take `CCc1cc(Nc2nccn3c(-c4ccc(OC)c(F)c4F)cnc23)ccc1C(=O)NCC(C)CNC(=O)[C@@H](N)CCCNC(=N)N` (mixture of isomers) [Example 406, rac-N-(3-((R)-2-amino-5-guanidinopentanamido)-2-methylpropyl)-4-((3-(2,3-difluoro-4-methoxyphenyl)imidazo[1,2-a]pyrazin-8-yl)amino)-2-ethylbenzamide diformate]: the IC90 was determined as 240 nM.
For `CN(CCN1CCNCC1)C(=O)c1ccc(Nc2nccn3c(-c4ccc(OC(F)F)cc4)cnc23)cc1Cl` [Example 203, 2-chloro-4-[[3-[4-(difluoromethoxy)phenyl]im-idazo[1,2-a]pyrazin-8-yl]amino]-N-methyl-N-(2-piperazin-1-ylethyl)benzamide; hydrochlo-ride], the IC90 under setting [1] was determined as 460 nM.
As for `COc1ccc(-c2cnc3c(Nc4ccc(C(=N)OCC(=N)N(C)C)c(C)c4)nccn23)cc1` [Example 16], under setting [1], the IC90 came to 810 nM.
In the case of `COc1ccc(-c2cnc3c(Nc4ccc(C(=O)NCCN5CCNCC5)c(C)c4)nccn23)c(F)c1F` [Example 377, 4-[[3-(2,3-difluoro-4-methoxyphenyl)imidazo[1,2-a]pyrazin-8-yl]amino]-2-methyl-N-(2-piperazin-1-ylethyl)benzamide], the IC90 under setting [1] was 180 nM.
Turning to `CN(CCC1CCNCC1)C(=O)c1ccc(Nc2nccn3c(-c4ccc(OCC#N)c(F)c4F)cnc23)cc1Cl` [Example 78, 2-chloro-4-[[3-[4-(cyanomethoxy)-2,3-difluoro-phenyl]imidazo[1,2-a]pyrazin-8-yl]amino]-N-methyl-N-[2-(4-piperidyl)ethyl] benzamide; 2,2,2-trifluoroacetic acid], the IC90 under setting [1] was 130 nM.
Consider `CCc1cc(Nc2nccn3c(-c4ccc(OC)c(F)c4F)cnc23)ccc1C(=O)NCc1cnn(C)c1` [Example 555, 4-[[3-(2,3-difluoro-4-methoxy-phenyl)imidazo[1,2-a]pyrazin-8-yl]amino]-2-ethyl-N-[(1-methylpyrazol-4-yl)methyl]benzamide], for which, under setting [1], the 90% effect concentration (IC90) is 150 nM.
With `CCc1cc(Nc2nccn3c(-c4ccc(OC)c(F)c4F)cnc23)ccc1C(=O)NCCCCCC(=O)N1CCN[C@H](CO)C1` [Example 162, 4-[[3-(2,3-difluoro-4-methoxy-phenyl)imidazo[1,2-a]pyrazin-8-yl]amino]-2-ethyl-N-[6-[(3S)-3-(hydroxymethyl)piperazin-1-yl]-6-oxo-hexyl]benzamide], the IC90 under setting [1] was determined as 80 nM.
In the case of `CCc1cc(Nc2nccn3c(-c4ccc(OC)c(F)c4F)cnc23)ccc1C(=O)NCC(O)CO` (stereo not drawn) [Example 483, 4-((3-(2,3-difluoro-4-methoxyphenyl)imidazo[1,2-a]pyrazin-8-yl)amino)-N-(2,3-dihydroxypropyl)-2-ethylbenzamide], the IC90 under setting [1] amounted to 210 nM.
On the same count and under the same terms, the same measure for `CCc1cc(Nc2nccn3c(-c4ccc(OC(F)F)cc4)cnc23)ccc1C(=O)NC` [Example 183, 4-[[3-[4-(difluoromethoxy)phenyl]im-idazo[1,2-a]pyrazin-8-yl]amino]-2-ethyl-N-methylbenzamide]: 190 nM; for `CCc1cc(Nc2nccn3c(-c4ccc(OC)c(F)c4F)cnc23)ccc1C(=O)NCCCNC(=O)C(CNC(=N)N)NC(=O)[C@@H](N)CCC(=O)O` (mixture of isomers) [Example 155, (4S)-4-Amino-5-((1-((3-(4-((3-(2,3-difluoro-4-methoxyphenyl)imidazo[1,2-a]pyrazin-8-yl)amino)-2-ethylbenzamido)propyl)amino)-3-guanidino-1-oxopropan-2-yl)amino)-5-oxopentanoic acid trihydrochloride (Epimers 1:1)]: 340 nM; for `CCc1cc(Nc2nccn3c(-c4ccc(OC)c(F)c4F)cnc23)ccc1C(=O)NCc1cnc(N)s1` [Example 569, N-((2-aminothiazol-5-yl)methyl)-4-((3-(2,3-difluoro-4-methoxyphenyl)imidazo[1,2-a]pyrazin-8-yl)amino)-2-ethylbenzamide]: 84 nM.
Consider `O=C(NCC1CCNCC1)c1ccc(Nc2nccn3c(-c4ccc(OC(F)F)c(F)c4F)cnc23)cc1Cl` [Example 43, 2-chloro-4-[[3-[4-(difluoromethoxy)-2,3-difluoro-phenyl]imidazo[1,2-a]pyrazin-8-yl]amino]-N-(4-piperidylmethyl) benzamide; 2,2,2-trifluoroacetic acid], for which, under setting [1], the IC90 worked out at 220 nM.
Take `CCc1cc(Nc2nccn3c(-c4ccc(OC)c(F)c4F)cnc23)ccc1C(=O)NCC(=O)NCCN1CCC1` [Example 446, N-[2-[2-(azetidin-1-yl)ethylamino]-2-oxo-ethyl]-4-[[3-(2,3-difluoro-4-methoxy-phenyl)imidazo[1,2-a]pyrazin-8-yl]amino]-2-ethyl-benzamide; formic acid]: the concentration for an effect of 90% (IC90) under setting [1] amounted to 300 nM.
Turning to `Cc1cc(Nc2nccn3c(-c4ccc(OC(F)F)cc4)cnc23)ccc1C(=O)NC[C@@H](C)N` [Example 268, N-[(2R)-2-aminopropyl]-4-[[3-[4-(difluoromethoxy)phenyl]im-idazo[1,2-a]pyrazin-8-yl]amino]-2-methylbenzamide;hydrochlo-ride], the IC90 under setting [1] stood at 5600 nM.
As for `CCc1cc(Nc2nccn3c(-c4ccc(OC)c(F)c4F)cnc23)ccc1C(=O)NC1(CNC(=O)[C@@H](N)CCCCN)CC1` [Example 484, N-[1-[[[(2S)-2,6-diaminohexanoyl]amino]meth-yl]cyclopropyl]-4-[[3-(2,3-difluoro-4-methoxy-phenyl)imidazo[1,2-a]pyrazin-8-yl]amino]-2-ethyl-benzamide], the IC90 under setting [1] stood at 280 nM.
Take `CCc1cc(Nc2nccn3c(-c4ccc(OC)c(F)c4F)cnc23)ccc1C(=O)NCC[C@H](C)NC(=O)[C@@H](N)CCCNC(=N)N` [Example 336, N-[(3S)-3-[[(2S)-2-amino-5-carbamimidamidopentanoyl]amino]butyl]-4-[[3-(2,3-difluoro-4-methoxyphenyl)imidazo[1,2-a]pyrazin-8-yl]amino]-2-ethylbenzamide; hydrochloride]: the IC90 under setting [1] came to 480 nM.
`CCc1cc(Nc2nccn3c(-c4ccc(OC)c(F)c4F)cnc23)ccc1C(=O)NCCC(=O)N1CCN[C@H](CO)C1` [Example 160, 4-[[3-(2,3-difluoro-4-methoxy-phenyl)imidazo[1,2-a]pyrazin-8-yl]amino]-2-ethyl-N-[3-[(3S)-3-(hydroxymethyl)piperazin-1-yl]-3-oxo-propyl]benzamide]: the IC90 under setting [1] worked out at 150 nM.
In the case of `COc1ccc(-c2cnc3c(Nc4ccc(C(=O)N[C@H](C)CN)c(C)c4)nccn23)c(F)c1F` [Example 506, #N!-[(2#R!)-1-aminopropan-2-yl]-4-[[3-(2,3-difluoro-4-methoxyphenyl)imidazo[1,2-a]pyrazin-8-yl]amino]-2-methylbenzamide;dihydrochlo-ride], the IC90 under setting [1] was 130 nM.
With `COc1ccc(-c2cnc3c(Nc4ccc(C(=O)NCCNC(=O)[C@@H]5CCNC[C@@H]5O)c(C)c4)nccn23)c(F)c1F` [Example 459, (3R,4R)-N-[2-[[4-[[3-(2,3-difluoro-4-methoxy-phenyl)imidazo[1,2-a]pyrazin-8-yl]amino]-2-methyl-benzoyl]amino]ethyl]-3-hydroxy-piperidine-4-carboxamide; formic acid], the IC90 under setting [1] was determined as 940 nM.
In the case of `CCc1cc(Nc2nccn3c(-c4ccc(OC)c(F)c4F)cnc23)ccc1C(=O)NCC1COC1` [Example 291, 4-[[3-(2,3-difluoro-4-methoxyphenyl)imidazo[1,2-a]pyrazin-8-yl]amino]-2-ethyl-N-(oxetan-3-ylmethyl)benzamide], the IC90 under setting [1] was found to be 90 nM.
Consider `CCc1cc(Nc2nccn3c(-c4ccc(OC)c(F)c4F)cnc23)ccc1C(=O)NCCNC(=O)CN` [Example 368, N-[2-[(2-aminoacetyl)amino]ethyl]-4-[[3-(2,3-difluoro-4-methoxyphenyl)imidazo[1,2-a]pyrazin-8-yl]amino]-2-ethylbenzamide], for which the IC90 under setting [1] was found to be 120 nM.
Turning to `CCc1cc(Nc2nccn3c(-c4ccc(Cl)c(F)c4F)cnc23)ccc1C(=O)NCCCN1CCC1` [Example 386, N-[3-(azetidin-1-yl)propyl]-4-[[3-(4-chloro-2,3-difluorophenyl)imidazo[1,2-a]pyrazin-8-yl]amino]-2-ethylbenzamide], the IC90 under setting [1] came out at 950 nM.
Take `Cc1cc(Nc2nccn3c(-c4ccc(OC(F)F)cc4)cnc23)ccc1C(=O)N(C)CCCN1CCCCC1` [Example 257, 4-[[3-[4-(difluoromethoxy)phenyl]im-idazo[1,2-a]pyrazin-8-yl]amino]-N,2-dimethyl-N-(3-piperidin-1-ylpropyl)benzamide]: the IC90 under setting [1] stood at 3600 nM.
Turning to `CCc1cc(Nc2nccn3c(-c4ccc(OC)c(F)c4F)cnc23)ccc1C(=O)NCC[C@@H](C)NC(=O)[C@@H](N)CCCNC(=N)N` [Example 340, N-[(3R)-3-[[(2S)-2-amino-5-carbamimidamidopentanoyl]amino]butyl]-4-[[3-(2,3-difluoro-4-methoxyphenyl)imidazo[1,2-a]pyrazin-8-yl]amino]-2-ethylbenzamide; hydrochloride], under setting [1], the IC90 was determined as 590 nM.
On the same count and under the same terms, with `COc1ccc(-c2cnc3c(Nc4ccc(C(=O)NCCCCCN)c(Cl)c4)nccn23)c(F)c1F` [Example 492, N-(5-aminopentyl)-2-chloro-4-((3-(2,3-difluoro-4-methoxyphenyl)imidazo[1,2-a]pyrazin-8-yl)amino)benzamide hydrochloride] the figure was 44 nM.
